Experimental data from ChEMBL document CHEMBL1131770, “Multiple parallel synthesis of N,N-dialkyldipeptidylamines as N-type calcium channel blockers” (Bioorg Med Chem Lett, 1999).

Biological target: Voltage-dependent N-type calcium channel subunit alpha-1B (Homo sapiens, UniProt Q00975)
Assay: In vitro antagonism of N-type voltage sensitive calcium channel in IMR-32 assay using fluorescent [Ca2+] indicator […] in the presence of 5 uM nitrendipine
Assay type: functional

Voltage-dependent N-type calcium channel subunit alpha-1B, sequence (Q00975 whole entry): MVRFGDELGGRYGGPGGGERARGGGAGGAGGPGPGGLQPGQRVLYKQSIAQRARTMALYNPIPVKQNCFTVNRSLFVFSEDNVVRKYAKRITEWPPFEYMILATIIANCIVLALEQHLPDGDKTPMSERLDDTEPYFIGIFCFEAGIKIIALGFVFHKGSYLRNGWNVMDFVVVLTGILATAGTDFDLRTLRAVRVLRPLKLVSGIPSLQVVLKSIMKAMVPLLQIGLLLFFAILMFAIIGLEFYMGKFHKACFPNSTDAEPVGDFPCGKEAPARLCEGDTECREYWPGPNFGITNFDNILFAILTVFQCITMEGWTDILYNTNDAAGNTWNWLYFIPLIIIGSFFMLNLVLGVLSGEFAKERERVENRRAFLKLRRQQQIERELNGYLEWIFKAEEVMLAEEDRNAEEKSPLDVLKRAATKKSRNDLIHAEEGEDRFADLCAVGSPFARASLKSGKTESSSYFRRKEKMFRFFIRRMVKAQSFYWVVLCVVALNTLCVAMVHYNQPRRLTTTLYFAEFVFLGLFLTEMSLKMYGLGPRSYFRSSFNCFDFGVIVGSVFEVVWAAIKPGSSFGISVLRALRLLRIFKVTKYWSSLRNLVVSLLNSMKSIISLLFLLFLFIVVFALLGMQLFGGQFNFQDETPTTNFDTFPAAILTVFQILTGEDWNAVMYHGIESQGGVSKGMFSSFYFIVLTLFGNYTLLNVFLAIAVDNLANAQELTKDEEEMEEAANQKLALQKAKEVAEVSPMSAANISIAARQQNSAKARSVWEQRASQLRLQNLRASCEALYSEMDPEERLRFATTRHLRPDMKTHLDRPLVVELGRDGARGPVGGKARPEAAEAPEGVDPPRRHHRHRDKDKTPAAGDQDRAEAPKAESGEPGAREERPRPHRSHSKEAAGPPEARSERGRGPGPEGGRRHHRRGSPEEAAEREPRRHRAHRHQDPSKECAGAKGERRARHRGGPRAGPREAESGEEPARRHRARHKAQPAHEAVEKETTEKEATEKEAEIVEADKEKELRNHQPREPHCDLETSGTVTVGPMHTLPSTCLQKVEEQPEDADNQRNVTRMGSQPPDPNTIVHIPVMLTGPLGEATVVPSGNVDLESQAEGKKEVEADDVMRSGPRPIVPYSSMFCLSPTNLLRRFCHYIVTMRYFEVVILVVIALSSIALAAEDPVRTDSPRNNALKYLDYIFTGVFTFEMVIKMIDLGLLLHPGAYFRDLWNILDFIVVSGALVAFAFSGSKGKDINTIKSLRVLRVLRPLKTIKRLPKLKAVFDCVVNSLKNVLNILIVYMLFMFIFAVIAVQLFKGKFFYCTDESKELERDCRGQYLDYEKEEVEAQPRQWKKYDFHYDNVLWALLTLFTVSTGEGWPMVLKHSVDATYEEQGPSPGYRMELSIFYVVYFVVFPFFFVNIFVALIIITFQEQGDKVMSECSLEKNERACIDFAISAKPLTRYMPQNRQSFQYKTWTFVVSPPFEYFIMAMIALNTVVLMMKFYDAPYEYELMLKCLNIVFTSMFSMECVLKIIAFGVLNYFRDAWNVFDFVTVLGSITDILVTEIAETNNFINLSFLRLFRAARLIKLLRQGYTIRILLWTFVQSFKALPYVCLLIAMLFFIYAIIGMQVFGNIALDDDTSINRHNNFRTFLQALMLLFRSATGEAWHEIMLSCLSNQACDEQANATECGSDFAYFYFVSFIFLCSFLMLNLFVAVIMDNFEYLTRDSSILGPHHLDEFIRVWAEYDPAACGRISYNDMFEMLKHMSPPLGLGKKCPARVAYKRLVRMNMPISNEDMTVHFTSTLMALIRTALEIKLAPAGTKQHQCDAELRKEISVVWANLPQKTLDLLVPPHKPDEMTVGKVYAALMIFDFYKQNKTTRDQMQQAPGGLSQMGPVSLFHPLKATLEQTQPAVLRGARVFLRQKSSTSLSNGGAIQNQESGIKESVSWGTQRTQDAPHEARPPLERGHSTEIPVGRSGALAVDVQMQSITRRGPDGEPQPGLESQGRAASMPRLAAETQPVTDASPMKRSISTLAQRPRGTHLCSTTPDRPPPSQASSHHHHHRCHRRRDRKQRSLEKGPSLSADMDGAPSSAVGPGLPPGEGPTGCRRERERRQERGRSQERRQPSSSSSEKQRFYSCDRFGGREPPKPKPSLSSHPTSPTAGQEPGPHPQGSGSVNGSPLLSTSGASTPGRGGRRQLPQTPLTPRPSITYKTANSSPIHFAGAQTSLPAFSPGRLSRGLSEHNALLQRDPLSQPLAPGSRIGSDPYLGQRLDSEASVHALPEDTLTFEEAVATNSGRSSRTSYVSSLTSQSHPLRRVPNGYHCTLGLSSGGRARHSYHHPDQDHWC

Structure (SMILES): CC(C)C[C@@H](C(=O)N[C@@H](Cc1ccc(OCc2ccccc2)cc1)C(=O)NC1CCN(Cc2ccccc2)CC1)N(C)CC1CCCCC1
- IC50: 0.31 µM

Structure (SMILES): CC(C)C[C@@H](C(=O)N[C@@H](Cc1ccc(OCc2ccccc2)cc1)C(=O)N1CCN(C)CC1)N(C)C
- IC50: 13 µM

Structure (SMILES): CC(C)C[C@@H](C(=O)N[C@@H](Cc1ccc(OCc2ccccc2)cc1)C(=O)NC1CCN(Cc2ccccc2)CC1)N(C)Cc1ccc(C(C)(C)C)cc1
- IC50: 0.27 µM

Structure (SMILES): CC(C)CCN(C)[C@@H](CC(C)C)C(=O)N[C@@H](Cc1ccc(OCc2ccccc2)cc1)C(=O)N1CCN(C)CC1
- IC50: 1.2 µM

Structure (SMILES): CC(C)C[C@@H](C(=O)N[C@@H](Cc1ccc(OCc2ccccc2)cc1)C(=O)N1CCN(C)CC1)N(C)CC1CCCCC1
- IC50: 1.2 µM

Structure (SMILES): CC(C)C[C@@H](C(=O)N[C@@H](Cc1ccc(OCc2ccccc2)cc1)C(=O)N1CCN(Cc2ccccc2)CC1)N(C)CC1CCCCC1
- IC50: 0.42 µM

Structure (SMILES): CC(C)C[C@@H](C(=O)N[C@@H](Cc1ccc(OCc2ccccc2)cc1)C(=O)N1CCCCC1)N(C)CC1CCCCC1
- IC50: 0.32 µM

Structure (SMILES): CC(C)C[C@@H](C(=O)N[C@@H](Cc1ccc(OCc2ccccc2)cc1)C(=O)N1CCN(Cc2ccccc2)CC1)N(C)Cc1ccc(C(C)(C)C)cc1
- IC50: 0.5 µM

Structure (SMILES): CC(C)C[C@@H](C(=O)N[C@@H](Cc1ccc(OCc2ccccc2)cc1)C(=O)NC(C)(C)C)N(C)Cc1ccc(C(C)(C)C)cc1
- IC50: 0.04 µM

Structure (SMILES): CC(C)C[C@@H](C(=O)N[C@@H](Cc1ccc(OCc2ccccc2)cc1)C(=O)N1CCN(C)CC1)N(C)C1CCCCC1
- IC50: 5.6 µM

Structure (SMILES): CC(C)C[C@@H](C(=O)N[C@@H](Cc1ccc(OCc2ccccc2)cc1)C(=O)NC1CCN(Cc2ccccc2)CC1)N(C)C1CCCCC1
- IC50: 1.3 µM

Structure (SMILES): CC(C)C[C@@H](C(=O)N[C@@H](Cc1ccc(OCc2ccccc2)cc1)C(=O)NC(C)(C)C)N(C)CC1CCCCC1
- IC50: 0.5 µM

Structure (SMILES): CC(C)C[C@@H](C(=O)N[C@@H](Cc1ccc(OCc2ccccc2)cc1)C(=O)NCCN1CCCCC1)N(C)Cc1ccc(C(C)(C)C)cc1
- IC50: 0.31 µM

Structure (SMILES): CC(C)C[C@@H](C(=O)N[C@@H](Cc1ccc(OCc2ccccc2)cc1)C(=O)N1CCN(Cc2ccccc2)CC1)N(C)C1CCCCC1
- IC50: 0.76 µM

Structure (SMILES): CC(C)CCN(C)[C@@H](CC(C)C)C(=O)N[C@@H](Cc1ccc(OCc2ccccc2)cc1)C(=O)NCCN1CCCCC1
- IC50: 1.1 µM

Structure (SMILES): CC(C)C[C@@H](C(=O)N[C@@H](Cc1ccc(OCc2ccccc2)cc1)C(=O)N1CCCCC1)N(C)Cc1ccc(C(C)(C)C)cc1
- IC50: 0.09 µM

Structure (SMILES): CC(C)C[C@@H](C(=O)N[C@@H](Cc1ccc(OCc2ccccc2)cc1)C(=O)NC(C)(C)C)N(C)C1CCCCC1
- IC50: 0.2 µM

Structure (SMILES): CC(C)C[C@@H](C(=O)N[C@@H](Cc1ccc(OCc2ccccc2)cc1)C(=O)N1CCN(C)CC1)N(C)Cc1ccc(C(C)(C)C)cc1
- IC50: 0.44 µM

Structure (SMILES): CC(C)CCN(C)[C@@H](CC(C)C)C(=O)N[C@@H](Cc1ccc(OCc2ccccc2)cc1)C(=O)NC1CCN(Cc2ccccc2)CC1
- IC50: 0.88 µM

Structure (SMILES): CC(C)CCN(C)[C@@H](CC(C)C)C(=O)N[C@@H](Cc1ccc(OCc2ccccc2)cc1)C(=O)N1CCCCC1
- IC50: 0.66 µM

Structure (SMILES): CC(C)C[C@@H](C(=O)N[C@@H](Cc1ccc(OCc2ccccc2)cc1)C(=O)NCCN1CCCCC1)N(C)C
- IC50: 4.1 µM

Structure (SMILES): CC(C)CCN(C)[C@@H](CC(C)C)C(=O)N[C@@H](Cc1ccc(OCc2ccccc2)cc1)C(=O)NC(C)(C)C
- IC50: 0.32 µM

Structure (SMILES): CC(C)C[C@@H](C(=O)N[C@@H](Cc1ccc(OCc2ccccc2)cc1)C(=O)NC1CCN(Cc2ccccc2)CC1)N(C)C
- IC50: 2.6 µM

Structure (SMILES): CC(C)C[C@@H](C(=O)N[C@@H](Cc1ccc(OCc2ccccc2)cc1)C(=O)N1CCCCC1)N(C)C1CCCCC1
- IC50: 0.38 µM

Structure (SMILES): CC(C)C[C@@H](C(=O)N[C@@H](Cc1ccc(OCc2ccccc2)cc1)C(=O)NC(C)(C)C)N(C)C
- IC50: 2.8 µM

Structure (SMILES): CC(C)CCN(C)[C@@H](CC(C)C)C(=O)N[C@@H](Cc1ccc(OCc2ccccc2)cc1)C(=O)N1CCN(Cc2ccccc2)CC1
- IC50: 0.59 µM

Structure (SMILES): CC(C)C[C@@H](C(=O)N[C@@H](Cc1ccc(OCc2ccccc2)cc1)C(=O)NCCN1CCCCC1)N(C)C1CCCCC1
- IC50: 0.88 µM

Structure (SMILES): CC(C)C[C@@H](C(=O)N[C@@H](Cc1ccc(OCc2ccccc2)cc1)C(=O)N1CCCCC1)N(C)C
- IC50: 1.9 µM

Structure (SMILES): CC(C)C[C@@H](C(=O)N[C@@H](Cc1ccc(OCc2ccccc2)cc1)C(=O)N1CCN(Cc2ccccc2)CC1)N(C)C
- IC50: 1.2 µM

Structure (SMILES): CC(C)C[C@@H](C(=O)N[C@@H](Cc1ccc(OCc2ccccc2)cc1)C(=O)NCCN1CCCCC1)N(C)CC1CCCCC1
- IC50: 1 µM
